How the values were obtained:
[1] = target: IRK1 potassium inward rectifier channel (Rattus norvegicus, UniProt Q64273)
[2] = test system: voltage-activated chloride and potassium channels of wild-type HEK-293 cells
HL5 cells = format: cell-based

Chain of IRK1 potassium inward rectifier channel (Q64273 whole entry): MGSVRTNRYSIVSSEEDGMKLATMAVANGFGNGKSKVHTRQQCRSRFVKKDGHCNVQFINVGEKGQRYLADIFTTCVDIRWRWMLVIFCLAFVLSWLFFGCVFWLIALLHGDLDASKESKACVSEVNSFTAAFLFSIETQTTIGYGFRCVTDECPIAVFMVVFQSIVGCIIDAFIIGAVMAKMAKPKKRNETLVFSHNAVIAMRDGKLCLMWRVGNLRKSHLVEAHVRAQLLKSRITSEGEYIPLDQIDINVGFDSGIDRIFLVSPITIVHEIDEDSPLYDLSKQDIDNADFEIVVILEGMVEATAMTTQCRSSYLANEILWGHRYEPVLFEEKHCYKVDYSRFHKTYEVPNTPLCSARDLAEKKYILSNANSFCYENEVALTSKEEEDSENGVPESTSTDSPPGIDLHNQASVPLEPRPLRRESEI

## [Ba+2].[Cl-].[Cl-] [barium chloride]
[1]
  voltage change during stimulation with block: no detectable voltage change during stimulation until the field reaches 80 V/cm

## CC[N+](CC)(CC)CC [TEA, Tetraethylammonium]
[2]
  block of the negative voltage response: partially blocks the response

## NC1=N[C@H](O)[C@H]2[C@H]3O[C@]4(O)O[C@@H]([C@@H](O)[C@@]2(N1)[C@@H]4O)[C@]3(O)CO [TTX, tetrodotoxin]
HL5 cells
  effect on the sustained signal: unaffected

— patent publication US8071318B2, “High throughput method and system for screening candidate compounds for activity against target ion channels” (Vertex Pharmaceuticals (San Diego) LLC, priority 2000, dated 2011)
